Source: US20070082937A1, “Anti cancer combinations comprising a cox-2 inhibitor” (Cancer Research Technology Limited, priority 2003, published 2007)

Experiments:
colon 38 tumours = test: Tumour growth delay assay; type: in vivo, mice
Experimental: C57B1/6 mice from the Animal Resource Unit, University of Auckland, were bred and housed under conditions of constant temperature and humidity, with sterile bedding and food, according to institutional ethical guidelines. All mice were aged between 8 and 12 weeks.
DMXAA was synthesized as the sodium salt (Rewcastle et al., (1990) Journal of National Cancer Institute 82:528-529). DMXAA sodium salt was dissolved in neutral aqueous solution and 25 mg/kg, in a volume of 0.1 ml per 10 g body weight, was injected intraperitoneally (i.p.) into mice.
Vioxx™ (Sigma) was made up in neutral aqueous solution and 100 or 150 mg/kg, in a volume of 0.1 ml per 10 g body weight, was injected intraperitoneally (i.p.) into mice. […]
Colon 38 tumour fragments (˜1 mm^3) were implanted subcutaneously (s.c.) in anaesthetized (sodium pentobarbitone, 90 mg/kg) mice. […] Tumour-bearing mice were treated with drugs according to the administration schedule described before, and the tumours measured using calipers, at three day intervals thereafter. Tumour volumes were calculated as 0.52a^2b, where a and b are the minor and major axes of the tumour, respectively. The arithmetic means were calculated for each time point, counting cured tumours as zero volume. The growth delay was determined as the difference in the number of days required for the control versus treated tumours to increase four times in volume. […]

tumour blood flow = details: human tumours, well-tolerated doses, dynamic MRI; cited from earlier work

| SMILES | effect on the growth of colon 38 tumours (colon 38 tumours; Vioxx alone 150 mg/kg i.p., colon 38 tumours s.c. in C57Bl/6 mice) | mice cured (colon 38 tumours; DMXAA alone 25 mg/kg i.p., colon 38 tumours s.c. in mice, 6 mice) | tumour blood flow (tumour blood flow) |
| --- | --- | --- | --- |
| CS(=O)(=O)c1ccc(C2=C(c3ccccc3)C(=O)OC2)cc1 [Vioxx™, rofecoxib, reference compound] | no significant effect | – | – |
| Cc1ccc2c(=O)c3cccc(CC(=O)O)c3oc2c1C [DMXAA, 5,6-dimethylxanthenone-4-acetic acid] | – | None and no cure | significant reduction |
